{"source": "patent US7259003B2", "about": "“Escherichia bacteria transformed with a yedA homolog to enhance L-amino acid producing activity, and methods for producing an L-amino acid using same” (priority 2001, dated 2007); further: key: +: good growth; −: no growth", "assay_type_in_all_cases": "cell-based", "conditions_in_all_cases": "37° C.", "key": {"[1]": {"system": "E. coli strain TG1 (pUC19)", "assay": "Growth of E. coli TG1 (pUC19) on M9 glucose minimal agar containing amino acids and amino acid analogs", "procedure": "(§1) The pYEDA1 and pYEDA2 plasmids and the pUC19 and pAYCTER3 vectors were introduced into E. coli strain TG1. Thus the strains TG1 (pYEDA1), TG1 (pYEDA2), TG1 (pUC19) and TG1 (pAYCTER3) were obtained.\n(§2) Then the ability of these strains to grow in the presence of amino acids and amino acid analogues for each strain were determined on M9 glucose minimal agar plates containing graded concentrations of inhibitor. The plates were spotted with 10^6 to 10^7 cells from an overnight culture grown in a minimal medium (supplemented with 100 μg/ml of ampicillin for plasmid strains). The growth was estimated after 44 h incubation at 37° C."}, "[2]": {"system": "E. coli strain TG1 (pYEDA1)", "assay": "Growth of E. coli TG1 (pYEDA1) on M9 glucose minimal agar containing amino acids and amino acid analogs", "procedure": "as §1, §2"}, "[3]": {"system": "E. coli strain TG1 (pYEDA2)", "assay": "Growth of E. coli TG1 (pYEDA2) on M9 glucose minimal agar containing amino acids and amino acid analogs", "procedure": "as §1, §2"}}}
{"smiles": "CN(C)CC(N)C(=O)O", "note": "(racemic) [4-aza-DL-leucine]", "values": [{"measurement": "Growth after 44 h TG1 (pUC19)", "setting": "[1]; substrate 1.0 mg/ml", "value": "−"}, {"measurement": "Growth after 44 h TG1 (pYEDA1)", "setting": "[2]; substrate 1.0 mg/ml", "value": "+"}]}
{"smiles": "NC(Cc1c[nH]c2ccc(F)cc12)C(=O)O", "note": "(racemic) [5-fluoro-DL-tryptophane]", "values": [{"measurement": "Growth after 44 h TG1 (pUC19)", "setting": "[1]; substrate 0.0005 mg/ml", "value": "−"}, {"measurement": "Growth after 44 h TG1 (pYEDA1)", "setting": "[2]; substrate 0.0005 mg/ml", "value": "+"}]}
{"smiles": "NC(Cc1ccc(F)cc1)C(=O)O", "note": "(racemic) [p-fluoro-DL-phenylalanine]", "values": [{"measurement": "Growth after 44 h TG1 (pUC19)", "setting": "[1]; substrate 1.0 mg/ml", "value": "−"}, {"measurement": "Growth after 44 h TG1 (pUC19)", "setting": "[1]; substrate 2.0 mg/ml", "value": "−"}, {"measurement": "Growth after 44 h TG1 (pYEDA1)", "setting": "[2]; substrate 1.0 mg/ml", "value": "+"}, {"measurement": "Growth after 44 h TG1 (pYEDA1)", "setting": "[2]; substrate 2.0 mg/ml", "value": "+"}, {"measurement": "Growth after 44 h TG1 (pYEDA2)", "setting": "[3]; substrate 1.0 mg/ml", "value": "+"}, {"measurement": "Growth after 44 h TG1 (pYEDA2)", "setting": "[3]; substrate 2.0 mg/ml", "value": "−"}]}
{"smiles": "N[C@@H](CS)C(=O)O", "note": "[L-cysteine]", "values": [{"measurement": "Growth after 44 h TG1 (pUC19)", "setting": "[1]; substrate 7.5 mg/ml", "value": "−"}, {"measurement": "Growth after 44 h TG1 (pYEDA1)", "setting": "[2]; substrate 7.5 mg/ml", "value": "+"}]}
{"smiles": "N[C@@H](Cc1c[nH]cn1)C(=O)O", "note": "[L-histidine]", "values": [{"measurement": "Growth after 44 h TG1 (pUC19)", "setting": "[1]; substrate 20.0 mg/ml", "value": "−"}, {"measurement": "Growth after 44 h TG1 (pYEDA1)", "setting": "[2]; substrate 20.0 mg/ml", "value": "+"}]}
{"smiles": "N[C@@H](CCO)C(=O)O", "note": "[L-homoserine]", "values": [{"measurement": "Growth after 44 h TG1 (pUC19)", "setting": "[1]; substrate 3.0 mg/ml", "value": "−"}, {"measurement": "Growth after 44 h TG1 (pYEDA1)", "setting": "[2]; substrate 3.0 mg/ml", "value": "+"}]}
{"smiles": "N[C@@H](Cc1ccccc1)C(=O)O", "note": "[L-phenylalanine]", "values": [{"measurement": "Growth after 44 h TG1 (pUC19)", "setting": "[1]; substrate 20.0 mg/ml", "value": "−"}, {"measurement": "Growth after 44 h TG1 (pYEDA1)", "setting": "[2]; substrate 20.0 mg/ml", "value": "+"}, {"measurement": "Growth after 44 h TG1 (pYEDA2)", "setting": "[3]; substrate 20.0 mg/ml", "value": "−"}]}
{"smiles": "C[C@@H](O)[C@H](N)C(=O)O", "note": "[L-threonine]", "values": [{"measurement": "Growth after 44 h TG1 (pUC19)", "setting": "[1]; substrate 50.0 mg/ml", "value": "−"}, {"measurement": "Growth after 44 h TG1 (pYEDA1)", "setting": "[2]; substrate 50.0 mg/ml", "value": "+"}]}
{"smiles": "NCCSC[C@H](N)C(=O)O", "note": "[S(2-aminoethyl)-L-cysteine]", "values": [{"measurement": "Growth after 44 h TG1 (pUC19)", "setting": "[1]; substrate 0.4 mg/ml", "value": "−"}, {"measurement": "Growth after 44 h TG1 (pYEDA1)", "setting": "[2]; substrate 0.4 mg/ml", "value": "+"}, {"measurement": "Growth after 44 h TG1 (pYEDA2)", "setting": "[3]; substrate 0.4 mg/ml", "value": "+"}]}
